Measured values from patent US20230024302A1, “2,3,5-TRISUBSTITUTED PYRAZOLO[1,5-A]PYRIMIDINE COMPOUNDS” (Arcus Biosciences, Inc., priority 2019, published 2023).

Assays:
[1] = target: T1, PI3Kγ (Homo sapiens, UniProt P48736); assay: PI3Kγ cellular assay in THP-1 cells (AKT pS473 AlphaLISA); assay type: cell-based; details: Table 2, rhMCP-1 stimulated AKT pS473, read-out: cellular potency (PI3Kγ IC50)
T1 construct: host or cells: THP-1
Summary of the method: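 Endogenous AKT S473 phosphorylation, detected by AlphaLISA in lysates, serves as the PI3Kγ activity read-out in stimulated, serum-starved THP-1 cells (1.8×10^5/well).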

[2] = target: T2, PI3Kγ (p120γ) (Homo sapiens, UniProt P48736); assay: Inhibition of PI3K kinase activity (ADP Glo), PI3Kγ; details: Table 2, p120γ, read-out: biochemical potency (PI3Kγ IC50)
T2 construct: purchased Promega V1761
Summary of the method: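 IC50 values come from a 4-parameter nonlinear fit of ADP-Glo luminescence, which measures ADP produced as PIP2 is phosphorylated to PIP3. The p120γ enzyme (2× stock 8 nM) sat with compound 1 h at rt before substrate (2× stocks: 50 μM ATP, 0.1 mg/ml PIP2) was added. Phosphorylation then proceeded 60 min at rt.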

T2 sequence (P48736 whole entry): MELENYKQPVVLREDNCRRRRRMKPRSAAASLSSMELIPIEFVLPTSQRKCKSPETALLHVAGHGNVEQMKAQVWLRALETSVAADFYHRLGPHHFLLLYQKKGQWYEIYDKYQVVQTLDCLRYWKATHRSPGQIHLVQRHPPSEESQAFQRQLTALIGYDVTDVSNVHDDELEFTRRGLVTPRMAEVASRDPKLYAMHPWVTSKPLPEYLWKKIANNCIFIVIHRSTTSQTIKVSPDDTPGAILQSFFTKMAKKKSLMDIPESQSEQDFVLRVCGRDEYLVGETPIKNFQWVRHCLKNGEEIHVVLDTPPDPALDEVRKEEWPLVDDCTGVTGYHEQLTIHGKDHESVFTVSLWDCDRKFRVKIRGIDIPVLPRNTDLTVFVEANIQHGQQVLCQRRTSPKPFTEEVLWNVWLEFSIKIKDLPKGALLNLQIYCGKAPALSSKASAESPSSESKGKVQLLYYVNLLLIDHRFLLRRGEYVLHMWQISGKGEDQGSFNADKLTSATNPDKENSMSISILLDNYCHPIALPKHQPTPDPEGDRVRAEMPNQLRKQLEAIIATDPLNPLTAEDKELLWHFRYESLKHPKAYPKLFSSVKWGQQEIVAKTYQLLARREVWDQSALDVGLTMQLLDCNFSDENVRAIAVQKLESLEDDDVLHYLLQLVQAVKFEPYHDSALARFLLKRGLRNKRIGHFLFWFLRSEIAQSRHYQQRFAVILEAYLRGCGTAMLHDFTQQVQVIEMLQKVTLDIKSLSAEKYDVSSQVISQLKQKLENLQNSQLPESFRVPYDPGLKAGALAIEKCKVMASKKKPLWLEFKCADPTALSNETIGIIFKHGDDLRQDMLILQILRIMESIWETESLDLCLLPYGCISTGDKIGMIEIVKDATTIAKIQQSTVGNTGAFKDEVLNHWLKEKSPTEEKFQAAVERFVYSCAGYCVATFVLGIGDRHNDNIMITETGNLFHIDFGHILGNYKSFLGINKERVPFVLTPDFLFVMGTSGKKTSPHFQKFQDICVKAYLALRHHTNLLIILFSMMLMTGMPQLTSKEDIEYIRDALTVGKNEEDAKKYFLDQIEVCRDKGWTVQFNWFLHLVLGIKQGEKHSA
T1 sequence (P48736 whole entry): as above

| SMILES | IC50 [1] [µM] | IC50 [2] [µM] |
| --- | --- | --- |
| CO[C@H]1C[C@H](NC(=O)c2c(N)nn3ccc(-c4cc(C)c5c(c4)CN([C@@H](C)C4CC4)C5=O)nc23)C1 [Example 182] | 0.1 to 1 | < 0.1 |
| CC[C@H](CO)NC(=O)c1c(N)nn2ccc(-c3cc(C)c4c(c3)CN([C@@H](C)C3CC3)C4=O)nc12 [Example 183] | 0.1 to 1 | < 0.1 |
| Cc1cc(-c2ccn3nc(N)c(C(=O)N[C@H]4CC[C@H](N)CC4)c3n2)cc2c1C(=O)N([C@@H](C)C1CC1)C2 [Example 184] | 0.1 to 1 | < 0.1 |
| Cc1cc(-c2ccn3nc(N)c(C(=O)N[C@H]4C[C@H](N)C4)c3n2)cc2c1C(=O)N([C@@H](C)C1CC1)C2 [Example 185] | 0.1 to 1 | < 0.1 |
| Cc1cc(-c2ccn3nc(N)c(C(=O)NCCO)c3n2)cc2c1C(=O)N([C@@H](C)C1CC1)C2 [Example 186] | 0.1 to 1 | < 0.1 |
| Cc1cc(-c2ccn3nc(N)c(C(=O)N[C@H]4CC[C@H](C(=O)O)CC4)c3n2)cc2c1C(=O)N([C@@H](C)C1CC1)C2 [Example 187] | 0.1 to 1 | < 0.1 |
| Cc1cc(-c2ccn3nc(N)c(C(=O)NCC4(O)CC4)c3n2)cc2c1C(=O)N([C@@H](C)C1CC1)C2 [Example 188] | 0.1 to 1 | < 0.1 |
| Cc1cc(-c2ccn3nc(N)c(C(=O)NC4CCC4)c3n2)cc2c1C(=O)N([C@@H](C)C1CC1)C2 [Example 189] | 0.1 to 1 | < 0.1 |
| Cc1cc(-c2ccn3nc(N)c(C(=O)N[C@@H](C)C(N)=O)c3n2)cc2c1C(=O)N([C@@H](C)C1CC1)C2 [Example 190] | 0.1 to 1 | < 0.1 |
| Cc1cc(-c2ccn3nc(N)c(C(=O)N[C@@H](CO)C(C)C)c3n2)cc2c1C(=O)N([C@@H](C)C1CC1)C2 [Example 191] | 0.1 to 1 | < 0.1 |
| Cc1cc(-c2ccn3nc(N)c(C(=O)N[C@@H](CO)c4ccccc4)c3n2)cc2c1C(=O)N([C@@H](C)C1CC1)C2 [Example 192] | 0.1 to 1 | < 0.1 |
| Cc1cc(-c2ccn3nc(N)c(C(=O)N[C@H]4CC[C@@H](C(=O)O)CC4)c3n2)cc2c1C(=O)N([C@@H](C)C1CC1)C2 [Example 193] | 0.1 to 1 | < 0.1 |
| CC(=O)N1CC(NC(=O)c2c(N)nn3ccc(-c4cc(C)c5c(c4)CN([C@@H](C)C4CC4)C5=O)nc23)C1 [Example 194] | 0.1 to 1 | < 0.1 |
| Cc1cc(-c2ccn3nc(N)c(C(=O)N[C@@H](CO)C4CC4)c3n2)cc2c1C(=O)N([C@@H](C)C1CC1)C2 [Example 195] | 0.1 to 1 | < 0.1 |
| Cc1cc(-c2ccn3nc(N)c(C(=O)N[C@H]4C[C@@](C)(O)C4)c3n2)cc2c1C(=O)N([C@@H](C)C1CC1)C2 [Example 196] | 0.1 to 1 | < 0.1 |
| Cc1cc(-c2ccn3nc(N)c(C(=O)N[C@@H]4CC[C@H](O)C4)c3n2)cc2c1C(=O)N([C@@H](C)C1CC1)C2 [Example 197] | 0.1 to 1 | < 0.1 |
| Cc1cc(-c2ccn3nc(N)c(C(=O)N[C@@H]4c5ccccc5C[C@H]4O)c3n2)cc2c1C(=O)N([C@@H](C)C1CC1)C2 [Example 198] | 0.1 to 1 | < 0.1 |

| SMILES | IC50 [1] [µM] | IC50 [2] [µM] |
| --- | --- | --- |
| Cc1cc(-c2ccn3nc(N)c(C(=O)N[C@@H]4COC[C@H]4O)c3n2)cc2c1C(=O)N([C@@H](C)C1CC1)C2 [Example 199] | 0.1 to 1 | < 0.1 |
| Cc1cc(-c2ccn3nc(N)c(C(=O)N[C@@H](C)C4CCOCC4)c3n2)cc2c1C(=O)N([C@@H](C)C1CC1)C2 [Example 200] | 0.1 to 1 | < 0.1 |
| Cc1cc(-c2ccn3nc(N)c(C(=O)NCc4ccncc4)c3n2)cc2c1C(=O)N([C@@H](C)C1CC1)C2 [Example 201] | 0.1 to 1 | < 0.1 |
| Cc1cc(-c2ccn3nc(N)c(C(=O)N[C@@H]4CNC(=O)C4)c3n2)cc2c1C(=O)N([C@@H](C)C1CC1)C2 [Example 202] | 0.1 to 1 | < 0.1 |
| Cc1cc(-c2ccn3nc(N)c(C(=O)NCC(C)(C)O)c3n2)cc2c1C(=O)N([C@@H](C)C1CC1)C2 [Example 203] | 0.1 to 1 | < 0.1 |
| Cc1cc(-c2ccn3nc(N)c(C(=O)N[C@H]4CC[C@@H](O)CC4)c3n2)cc2c1C(=O)N([C@@H](C)C1CC1)C2 [Example 205] | 0.1 to 1 | < 0.1 |
| Cc1cc(-c2ccn3nc(N)c(C(=O)N[C@H](C)CO)c3n2)cc2c1C(=O)N([C@@H](C)C1CC1)C2 [Example 206] | 0.1 to 1 | < 0.1 |
| Cc1cc(-c2ccn3nc(N)c(C(=O)NCc4ccn(C)n4)c3n2)cc2c1C(=O)N([C@@H](C)C1CC1)C2 [Example 207] | 0.1 to 1 | < 0.1 |
| Cc1cc(-c2ccn3nc(N)c(C(=O)NC4CC4)c3n2)cc2c1C(=O)N([C@@H](C)C1CC1)C2 [Example 208] | 0.1 to 1 | < 0.1 |
| Cc1cc(-c2ccn3nc(N)c(C(=O)NC4CCN(C)CC4)c3n2)cc2c1C(=O)N([C@@H](C)C1CC1)C2 [Example 209] | 0.1 to 1 | < 0.1 |
| Cc1cc(-c2ccn3nc(N)c(C(=O)N[C@H]4CCC[C@@H]4O)c3n2)cc2c1C(=O)N([C@@H](C)C1CC1)C2 [Example 210] | 0.1 to 1 | < 0.1 |
| Cc1cc(-c2ccn3nc(N)c(C(=O)N[C@H]4CC[C@@H]4O)c3n2)cc2c1C(=O)N([C@@H](C)C1CC1)C2 [Example 211] | 0.1 to 1 | < 0.1 |
| Cc1cc(-c2ccn3nc(N)c(C(=O)N[C@@H](C)c4cccnc4)c3n2)cc2c1C(=O)N([C@@H](C)C1CC1)C2 [Example 212] | 0.1 to 1 | < 0.1 |
| Cc1cc(-c2ccn3nc(N)c(C(=O)NCC4CC4)c3n2)cc2c1C(=O)N([C@@H](C)C1CC1)C2 [Example 213] | 0.1 to 1 | < 0.1 |
| Cc1cc(-c2ccn3nc(N)c(C(=O)NCc4cnn(C)c4)c3n2)cc2c1C(=O)N([C@@H](C)C1CC1)C2 [Example 214] | 0.1 to 1 | < 0.1 |
| Cc1cc(-c2ccn3nc(N)c(C(=O)NC[C@H]4C[C@@H](O)C4)c3n2)cc2c1C(=O)N([C@@H](C)C1CC1)C2 [Example 215] | 0.1 to 1 | < 0.1 |

More lines, now with the values ahead:

| IC50 [1] [µM] | IC50 [2] [µM] | SMILES |
| --- | --- | --- |
| 0.1 to 1 | < 0.1 | CNC(=O)c1c(N)nn2ccc(-c3cc(C)c4c(c3)CN([C@@H](C)C3CC3)C4=O)nc12 [Example 216] |
| 0.1 to 1 | < 0.1 | Cc1cc(-c2ccn3nc(N)c(C(=O)N[C@@H](C)c4ccccn4)c3n2)cc2c1C(=O)N([C@@H](C)C1CC1)C2 [Example 217] |
| 0.1 to 1 | < 0.1 | Cc1cc(-c2ccn3nc(N)c(C(=O)N[C@@H]4CCNC4)c3n2)cc2c1C(=O)N([C@@H](C)C1CC1)C2 [Example 218] |
| 0.1 to 1 | < 0.1 | Cc1cc(-c2ccn3nc(N)c(C(=O)N[C@H](C)c4ccncc4)c3n2)cc2c1C(=O)N([C@@H](C)C1CC1)C2 [Example 219] |
| 0.1 to 1 | < 0.1 | Cc1cc(-c2ccn3nc(N)c(C(=O)N[C@@H](C)C4CC4)c3n2)cc2c1C(=O)N([C@@H](C)C1CC1)C2 [Example 220] |
| 0.1 to 1 | < 0.1 | Cc1cc(-c2ccn3nc(N)c(C(=O)N[C@@H](C)CO)c3n2)cc2c1C(=O)N([C@@H](C)C1CC1)C2 [Example 221] |
| 0.1 to 1 | < 0.1 | Cc1cc(-c2ccn3nc(N)c(C(=O)NCC(F)(F)F)c3n2)cc2c1C(=O)N([C@@H](C)C1CC1)C2 [Example 222] |
| 0.1 to 1 | < 0.1 | Cc1cc(-c2ccn3nc(N)c(C(=O)NC(C)(C)CO)c3n2)cc2c1C(=O)N([C@@H](C)C1CC1)C2 [Example 223] |
| 0.1 to 1 | < 0.1 | Cc1cc(-c2ccn3nc(N)c(C(=O)NC(C)C(N)=O)c3n2)cc2c1C(=O)N([C@@H](C)C1CC1)C2 (stereo partly shown) [Example 224] |
| 0.1 to 1 | < 0.1 | Cc1cc(-c2ccn3nc(N)c(C(=O)N[C@H]4CCNC4=O)c3n2)cc2c1C(=O)N([C@@H](C)C1CC1)C2 [Example 225] |
| 0.1 to 1 | < 0.1 | Cc1cc(-c2ccn3nc(N)c(C(=O)NCC4COC4)c3n2)cc2c1C(=O)N([C@@H](C)C1CC1)C2 [Example 226] |
| 0.1 to 1 | < 0.1 | Cc1cc(-c2ccn3nc(N)c(C(=O)NC[C@@H](C)O)c3n2)cc2c1C(=O)N([C@@H](C)C1CC1)C2 [Example 227] |
| 0.1 to 1 | < 0.1 | Cc1cc(-c2ccn3nc(N)c(C(=O)NC4(CCO)CC4)c3n2)cc2c1C(=O)N([C@@H](C)C1CC1)C2 [Example 228] |
| 0.1 to 1 | < 0.1 | Cc1cc(-c2ccn3nc(N)c(C(=O)N[C@@H]4CCCC[C@H]4O)c3n2)cc2c1C(=O)N([C@@H](C)C1CC1)C2 [Example 229] |
| 0.1 to 1 | < 0.1 | Cc1cc(-c2ccn3nc(N)c(C(=O)N[C@H](C)CN)c3n2)cc2c1C(=O)N([C@@H](C)C1CC1)C2 [Example 230] |
| 0.1 to 1 | < 0.1 | Cc1cc(-c2ccn3nc(N)c(C(=O)N[C@@H]4CCCNC4)c3n2)cc2c1C(=O)N([C@@H](C)C1CC1)C2 [Example 231] |
| 0.1 to 1 | < 0.1 | Cc1cc(-c2ccn3nc(N)c(C(=O)N[C@H]4CCNC4)c3n2)cc2c1C(=O)N([C@@H](C)C1CC1)C2 [Example 232] |
| 0.1 to 1 | < 0.1 | CCNC(=O)c1c(N)nn2ccc(-c3cc(C)c4c(c3)CN([C@@H](C)C3CC3)C4=O)nc12 [Example 233] |
| 0.1 to 1 | < 0.1 | Cc1cc(-c2ccn3nc(N)c(C(=O)NC[C@H](C)O)c3n2)cc2c1C(=O)N([C@@H](C)C1CC1)C2 [Example 234] |
| 0.1 to 1 | < 0.1 | Cc1cc(-c2ccn3nc(N)c(C(=O)N[C@@H](C)c4cnn(C)c4)c3n2)cc2c1C(=O)N([C@@H](C)C1CC1)C2 [Example 235] |
